Data on four compounds can be found in US20040176321A1, “Compositions of benzoquinolizine carboxylic acid antibiotic drugs” (priority 2002, published 2004).

For orientation: pKa means the negative logarithm of the acid dissociation constant. The low end stands for a stronger acid or weaker base, the high end for a weaker acid or stronger base. As a reminder, the solubility is the concentration that dissolves in the medium under given conditions. A higher solubility goes with much dissolved substance.

One series is described as follows: pKa value. It is filed as physicochemical.
Series [1] is described as follows: Solubility at ambient temperature (in water). It counts as physicochemical.
Series [2] is described as follows: Solubility study with β-cyclodextrin and hydroxypropyl β-cyclodextrin. It counts as physicochemical. To be noted: ca. 24 hours, 27° C. As for the experimental part:
The flasks were kept ca. 24 hours on a mechanical shaker, maintained at 27° C. and 140 rpm. The solutions were filtered through 0.2 micron syringe filter. The filtrates were diluted appropriately and injected on HPLC. The amounts dissolved were determined by comparing the sample peak area with peak area of standard solution.

A further series has as its system Wistar rats. To be noted: rat, in vivo, iv. As for the experimental part:
Wistar rats of body weight range 90-100 gm were treated with i.v. administered above test compositions in doses specified in the table below for a period of 7 days to 28 days. The test doses were administered by injecting 0.5 ml-1.0 ml of test compositions via tail vein of each rat with the help of graduated 1 ml disposable syringe fitted with 26½ G needle. Each repeat dose was administered in 5 male and 5 female rats. Animals were monitored for the induction of phlebitis or its progression to complete venous blockade.

Where only a bound is given, the exact number is not on record here.

Regarding `C[C@H]1CCc2c(N3CCC(O)CC3)c(F)cc3c(=O)c(C(=O)O)cn1c23` [Substance A, S-(−)-9-fluoro-6,7-dihydro-8-(4-hydroxypiperidin-1-yl)-5-methyl-1-oxo-1H,5H-benzo[I,j]quinolizine-2-carboxylic acid], in “pKa value”, the pKa is 6.8. Also, the solubility in series [1] is < 1500 µg/mL. The “amount dissolved with HP-β-CD” value in series [2] (HP-β-CD 0 mg/ml) was found to be 0.04 mg/mL; in series [2] (HP-β-CD 2 mg/ml), 0.21 mg/mL; in series [2] (HP-β-CD 5 mg/ml), 0.28 mg/mL; in series [2] (HP-β-CD 10 mg/ml) it was 0.55 mg/mL; in series [2] (HP-β-CD 50 mg/ml), 2.67 mg/mL. Besides, the “amount dissolved with β-CD” value came out at 0.04 mg/mL in series [2] (β-CD 0 mg/ml), 0.12 mg/mL in series [2] (β-CD 2 mg/ml), 0.27 mg/mL in series [2] (β-CD 5 mg/ml) and 0.53 mg/mL in series [2] (β-CD 10 mg/ml).

For the compound `C[C@@H]1CCc2c(N3CCC(O)CC3)c(F)cc3c(=O)c(C(=O)O)cn1c23` [Substance D, R-(+)-9-fluoro-6,7-dihydro-8-(4-hydroxypiperidin-1-yl)-5-methyl-1-oxo-1H,5H-benzo[I,j]quinolizine-2-carboxylic acid], the “amount dissolved with HP-β-CD” value in series [2] (HP-β-CD 0 mg/ml) is 0.15 mg/mL; in series [2] (HP-β-CD 2 mg/ml), 0.37 mg/mL; in series [2] (HP-β-CD 5 mg/ml), 0.50 mg/mL; in series [2] (HP-β-CD 10 mg/ml) it was 1.08 mg/mL; in series [2] (HP-β-CD 50 mg/ml), 5.01 mg/mL. The “amount dissolved with β-CD” value in series [2] (β-CD 0 mg/ml) came to 0.15 mg/mL; in series [2] (β-CD 5 mg/ml), 0.71 mg/mL.

Take `C[C@H]1CCc2c(N3CCC(O)CC3)c(F)cc3c(=O)c(C(=O)O)cn1c23.N=C(N)NCCC[C@H](N)C(=O)O` [Substance B, S-(−)-9-fluoro-6,7-dihydro-8-(4-hydroxypiperidin-1-yl)-5-methyl-1-oxo-1H,5H-benzo[I,j]quinolizine-2-carboxylic acid arginine salt]: the venous tolerability entry in the series with Wistar rats is “superior venous tolerability”.

Consider `CC1CCc2c(N3CCC(O)CC3)c(F)cc3c(=O)c(C(=O)O)cn1c23` (racemic) [Substance C, RS-(±)-9-fluoro-6,7-dihydro-8-(4-hydroxypiperidin-1-yl)-5-methyl-1-oxo-1H,5H-benzo[I,j]quinolizine-2-carboxylic acid], for which the “amount dissolved with HP-β-CD” value in series [2] (HP-β-CD 0 mg/ml) is 0.03 mg/mL; in series [2] (HP-β-CD 2 mg/ml), 0.05 mg/mL; in series [2] (HP-β-CD 5 mg/ml), 0.11 mg/mL; in series [2] (HP-β-CD 10 mg/ml), 0.31 mg/mL; in series [2] (HP-β-CD 50 mg/ml), 1.03 mg/mL. The results for the “amount dissolved with β-CD” value in series [2] (β-CD 0 mg/ml), in series [2] (β-CD 5 mg/ml) and in series [2] (β-CD 10 mg/ml) were 0.03 mg/mL, 0.22 mg/mL and 0.40 mg/mL, respectively.
